Assays:
[1] = system: GAr-based inhibition of translation; experiment: Yeast assay (assays described in Lista et al.); assay type: cell-based, Saccharomyces cerevisiae
Text: A yeast-based (Saccharomyces cerevisiae) assay that recapitulates all the aspects of the GAr-based inhibition of translation, including the GAr-length dependency, has been developed, that allowed understanding the mechanisms of GAr-mediated mRNA translation—suppression in cis, as well as the cellular factors involved (Lista et al. Biotechnol J 2015, 10, 1670-1681). This assay was successfully used to identify small molecular weight compounds that can stimulate EBNA1 expression both in yeast and mammalian cells and that relieve GAr-based limitation of antigen presentation (Voisset et al. Dis Model Mech 2014, 7, 435-444).
Compounds 1a, 2a, 4a, 5a, 7a, 10a and 11a were also tested in the various assay described in Lista et al. (Nat Commun 2017, 8, 16043).

[2] = system: interaction between NCL and the G4s of EBNA1 mRNA; details: earlier study, Lista et al. Nat Commun 2017; cited from earlier work
quadruplex RNA F-EBNA1-T = experiment: FRET-melting assay; assay type: binding, Epstein-Barr virus
Text: The FRET-melting assay is based on thermal denaturation of G4-ARN monitored by fluorescence due to the phenomenon of Förster Resonance Energy Transfer (FRET). This method uses quadruplex-forming RNA sequence dual-labeled with two different fluorophores: a donor (fluorescein, or FAM) and an acceptor (tetramethylrhodamine, or TAMRA). When RNA is folded into G-quadruplex (G4) structure, fluorescence of the donor fluorophore is weak due to strong energy transfer (FRET) to the neighboring acceptor fluorophore. Upon thermal denaturation, the quadruplex unfolds and the fluorophores are separated, leading to decrease of the FRET effect and increase of the fluorescence of the donor (see FIG. 2). By following the fluorescence of the donor as a function of temperature, a melting curve of the G-quadruplex RNA can be obtained, which allows determining the temperature of denaturation at which 50% of the quadruples is unfolded (T1, FIG. 3).
The FRET-melting assay allows assessing the affinity of small molecules (ligands) for the G4-RNA. The addition of a G4-ligand stabilizes the G-quadruplex structure and increases the denaturation temperature. The temperature of denaturation in the presence of ligands (T2) can be compared with that obtained in the absence of ligands (T1). The value of ΔTm (ΔTm=T2−T1) represents a measure of the affinity of the compounds of the invention (ligand). Generally, values of ΔTm>20° C. correspond to ligands of high affinity.
The dual-labeled oligoribonucleotide EBNA1 [5′-FAM-r(GGGGCAGGAGCAGGAGGA)-TAMRA-3′] (SEQ ID no 2) purified by reversed-phase HPLC was purchased from Eurogentec. The donor fluorophore was 6-carboxyfluorescein (FAM) and the acceptor fluorophore was 6-carboxytetramethylrhodamine (TAMRA).
Stock solutions of the ligands (2 mM in DMSO) were used for FRET-melting assay, unless otherwise stated, and were stored at −20° C. FRET-melting measurements are performed on 7900HT Fast Real-Time PCR System (Applied Biosystems) with Microamp Fast optical 96-well reaction plate (Applied Biosystems).
Preparation of Oligonucleotides For FRET-melting assay, oligoribonucleotide F-EBNA1-T was dissolved in K^+10 buffer (10 mM lithium cacodylate buffer, pH 7.3, supplemented with 10 mM KCl and 90 mM LiCl).
Prior to use, all oligonucleotides were pre-treated by heating at 95° C. for 5 min, then rapidly cooled to 4° C. to favor the intramolecular folding by kinetic trapping. Duplex-DNA ds26 (5′CAA-TCG-GAT-CGA-ATT-CGA-TCC-GAT-TG-3′) (SEQ ID no 3) was prepared by heating this self-complementary strand at 90° C. for 5 min in K^+10 buffer followed by a slow cooling over 6 h.
FRET-melting assay is performed in 96-well plates on real time PCR apparatus 7900HT Fast Real-Time PCR System using the heating ramp as follow: 5 min at 25° C., then increase of 0.5° C. every minute until 95° C. Each experimental condition was tested in duplicated in a volume of 25 μL for each sample. The 96-well plates (Applied Biosystems) were prepared by aliquoting the annealed RNA (24 μL of 0.21 μM solution in K^+10 buffer) into each well, followed by 1 μL of ligand solution (25 μM in K^+10 buffer). For competition experiments, duplex competitors were added to 200 nM quadruplex sequences at final concentrations of 3.0 μM (15 eq) and 10.0 μM (50 eq), with a total reaction volume of 25 μL, with the labeled oligoribonucleotide (0.2 μM) and the ligand (1.0 μM). Measurements were made with excitation at 492 nm and detection at 516 nm. The change in the melting temperature in the presence of 1.0 μM putative ligand, ΔTm (1.0 μM), was calculated from at least two experiments by subtraction of the blank from the averaged melting temperature of each compound (1.0 μM).
The results are shown in FIG. 4 and in Table 2 below (higher ΔTm values indicate higher affinity of the compounds to G4-RNA structure of EBNA1).

G4-RNA EBNA1 = experiment: HT-G4-FID assay: Thiazole Orange displacement from G4-RNA; assay type: binding, Epstein-Barr virus
Method: This assay is based on the displacement of a fluorescent indicator (Thiazole Orange, hereinafter TO) from a G4-RNA structure (RNA G-quadruplex of EBNA1) by a putative ligand such as the compounds of the invention (see FIG. 1). This displacement is quantified as % TO displacement. The percentage of TO displacement is calculated from the fluorescence intensity (F) in the presence of a putative ligand, using:
[formula] where F0 is fluorescence intensity of the probe (TO) bound to RNA without added ligand. The percentage of displacement is then plotted as a function of the concentration of added ligand. The RNA affinity of putative ligands is evaluated using the concentration of a ligand required to decrease the fluorescence of the probe by 50% (noted DC50), which is determined graphically from non-linear fitting of the displacement curve. […] 2. Materials and Reagents
Thiazole Orange (TO) and cacodylic acid were purchased from Aldrich and used without further purification. The oligoribonucleotide EBNA1 [5′-r(GGGGCAGGAGCAGGAGGA)-3′] (SEQ ID no 1) purified by reversed-phase HPLC was purchased from Eurogentec.
Stock solutions of the ligands (2 mM in DMSO (dimethylsulfoxyde)) were used for G4-FID assay, unless otherwise stated, and were stored at −20° C. Stock solutions of TO (2 mM in DMSO) were used for G4-FID assay. Fluorescent probe powders and solutions were stored and used, protected from light and used as aliquots to avoid freeze-thaw cycles. HT-G4-FID measurements were performed on a FLUOstar Omega microplate reader (BMG Labtech) with 96-well Non-Binding Surface black with black bottom polystyrene microplates (Corning ref 3650).
For HT-G4-FID assay, the oligonucleotide was dissolved in K^+−100-buffer (10 mM lithium cacodylate, pH 7.3, 100 mM KCl, 1 mM EDTA, 1% DMSO). Oligonucleotide concentrations were determined on the basis of their absorbance at 260 nm. Prior to use, the oligonucleotide was pre-treated by heating at 95° C. for 5 min followed by a slow cooling to 25° C.
Each G4-FID assay is performed in a 96-well microplates. […] The microplate is filled with (a) K^+−100 solution (qs for 200 μL) (b) 10 μL of a solution of pre-folded oligonucleotides (5 μM) and TO (10 μM-2 eq) and (c) an extemporaneously prepared 5 μM ligand solution in K^+−100 buffer (0 to 100 μL along the line of the microplate, i.e., from column […]: 0, 0.125, 0.25, 0.375, 0.5, 0.625, 0.75, 1.0, 1.25, 1.5, 2.0 and 2.5 μM) (see Largy et al., Anal Bioanal Chem 2011, 400, 34193427). After 5 min of orbital shaking at 500 rpm, fluorescence intensity is measured using the following experimental parameters: positioning delay: 0.5 s, 20 flashes per well, emission/excitation filters (nm): 485/520, gain adjusted at 80% of the fluorescence from the most fluorescent well (i.e., a well from column A).
Results are shown in Table 1 below (lower DC50 values indicate higher affinity of compounds to the G4-RNA structure of EBNA1).

## C[n+]1ccc(C=NNC(=O)c2cccc(C(=O)NN=Cc3cc[n+](C)cc3)n2)cc1.[I-].[I-] [Compound 1a, N′^2,N′^6-Bis[(1-methylpyridinium-4-yl)methylene]pyridine-2,6-dicarbohydrazide iodide]
[1]
  result in the yeast assay: positive results

## C[n+]1cc(NC(=O)c2ccc3ccc4ccc(C(=O)Nc5cc6ccccc6[n+](C)c5)nc4c3n2)cc2ccccc21 [PhenDC3]
[2]
  NCL-EBNA1 mRNA G-quadruplex interaction by PLA: prevented

## C[n+]1ccc(C=NNC(=O)c2cc(C(=O)NN=Cc3cc[n+](C)cc3)ncn2)cc1.[I-].[I-] [Compound 4a, N′^4,N′^6-Bis[(1-methylpyridinium-4-yl)methylene]pyrimidine-4,6-dicarbohydrazide iodide]
[1]
  result in the yeast assay: positive results

## C[n+]1ccc(C=NNC(=O)c2ccc3ccc4ccc(C(=O)NN=Cc5cc[n+](C)cc5)nc4c3n2)cc1.[I-].[I-] [Compound 10a, N′^2,N′^9-Bis[(1-methylpyridinium-4-yl)methylene]-1,10-phenanthroline-2,9-dicarbohydrazide iodide]
Quadruplex RNA F-EBNA1-T; F-EBNA1-T 0.2 μM, ligand 1.0 μM, K+10 buffer, competitor DNA ds26 3 μM (15 eq)
  ΔTm, ligand + 3 μM ds26: 15.0 ± 0.6 °C
Quadruplex RNA F-EBNA1-T; F-EBNA1-T 0.2 μM, ligand 1.0 μM, K+10 buffer, competitor DNA ds26 10 μM (50 eq)
  ΔTm, ligand + 10 μM ds26: 12.5 ± 1.5 °C
Quadruplex RNA F-EBNA1-T; F-EBNA1-T 0.2 μM, ligand 1.0 μM, K+10 buffer, no competitor
  ΔTm, ligand alone: 15.7 ± 0.6 °C
Quadruplex RNA F-EBNA1-T; conclusion from Table 2
  affinity for the G-quadruplex structure of EBNA1 (in words, FRET-melting data): particularly high affinity
G4-RNA EBNA1; K+-100 buffer, pH 7.3, triplicate assays
  DC50: 320 ± 20 nM
G4-RNA EBNA1; conclusion from Table 1
  affinity for the G-quadruplex structure of EBNA1 (in words, FID data): particularly high affinity
[1]
  result in the yeast assay: positive results

## C[n+]1ccc(C=NNC(=O)c2ccc3ccc(C(=O)NN=Cc4cc[n+](C)cc4)nc3n2)cc1.[I-].[I-] [Compound 7a, N′^2,N′^7-Bis[(1-methylpyridinium-4-yl)methylene]-1,8-naphthyridine-2,7-dicarbohydrazide iodide]
[1]
  result in the yeast assay: positive results

Reference: patent publication US11406631B2, “Hydrazone derivatives for preventing or treating EBV-related cancers” (Universite de Bretagne Occidentale, priority 2018, dated 2022)
